# Measured values: patent US20230383320A1, “METHOD FOR PRODUCING MONOUNSATURATED FATTY ACID HAVING 16 CARBON ATOMS” (SHIZUOKA PREFECTURAL UNIVERSITY CORPORATION, priority 2022, published 2023)
# Tested on: Staphylococcus aureus
# Experiment: not given
# Conditions: reported in Non Patent Literature 1; cited from earlier work
Molecule,selective antibacterial activity (S. aureus versus S. epidermidis),antibacterial activity against Staphylococcus aureus
CCCCCC/C=C\CCCCCCCC(=O)O [palmitoleic acid],selective antibacterial activity similar to sapienic acid,
CCCCCCCCC/C=C\CCCCC(=O)O [sapienic acid],,strong antibacterial activity
CCCCCCCC/C=C\CCCCCC(=O)O [7-cis-hexadecenoic acid],selective antibacterial activity similar to sapienic acid,

# Tested on: Bifidobacterium sp. strain JCM7042
# Experiment: L-cysteine concentration in MRS liquid medium, production of 7-cis-hexadecenoic acid
# Assay type: cell-based
# Conditions: 5.0 g/L in MRS liquid medium
# Method: MRS media with various amounts of L-cysteine added were prepared to investigate their effect on the production of 7-cis-hexadecenoic acid by bifidobacteria. Specifically, the test was performed as follows. Bifidobacterium sp. strain JCM7042 (strain JCM7042) was used as the Bifidobacterium. L-cysteine hydrochloride monohydrate was added at 0.001 g/L, 0.01 g/L, 0.1 g/L, 0.5 g/L, 1.0 g/L, and 5.0 g/L to the MRS liquid medium with the composition shown in Table 1 to prepare L-cysteine-containing MRS liquid media. These MRS liquid media with L-cysteine and the control MRS liquid medium (without added L-cysteine) were cultured in the same manner as in Example 1. Using the same methods and conditions as in Example 1, the 7-cis-hexadecenoic acid in each culture solution was quantified by gas chromatography (GC) analysis.
row,Molecule,production of 7-cis-hexadecenoic acid
1,Cl.N[C@@H](CS)C(=O)O.O [L-Cysteine Hydrochloride (1-hydrate)],greatly inhibited

# Tested on: Staphylococcus aureus
# Experiment: not given
# Conditions: 7-cis-hexadecenoic acid itself; cited from earlier work
row,Molecule,MIC against Staphylococcus aureus
1,CCCCCCCC/C=C\CCCCCC(=O)O [7-cis-hexadecenoic acid],about 3 μg/mL

# Tested on: Staphylococcus epidermidis
# Experiment: not given
# Conditions: reported in Non Patent Literature 1; cited from earlier work
row,Molecule,antibacterial activity against Staphylococcus epidermidis
1,CCCCCCCCC/C=C\CCCCC(=O)O [sapienic acid],not against Staphylococcus epidermidis

# Tested on: Bifidobacterium sp. strain JCM7042
# Experiment: Effect of components added to TOS liquid medium on bifidobacteria growth and 7-cis-C16:1 production
# Assay type: cell-based
# Conditions: component added to TOS liquid medium, amount per liter (0.1 to 10 g); compared to control without the component; 37° C.
Molecule,7-cis-C16:1 Production,Bifidobacteria Growth
"CCCCCCCCCCCCCC(=O)O [Myristic Acid (free form), Myristic Acid]",Poor,Poor
Tergitol NP40,Good,Good
O=C(O)CC(=O)C(=O)O [Oxaloacetic Acid],Poor,Good
"CCCCCCCCCCCCCCCC(=O)O [Palmitic Acid (free form), Palmitic Acid]",Poor,Poor
Cl.N[C@@H](CS)C(=O)O.O [L-Cysteine Hydrochloride (1-hydrate)],Excellent,Excellent
Anisidine,Good,Good
O=C([O-])O.[Na+] [Sodium Hydrogen Carbonate],Poor,Poor
CCCCCCCC/C=C\CCCCCCCC(=O)OC [Oleic Acid Methyl Ester],Good,Excellent
Polysorbate 80,Poor,Good
CCCCCCCCCCCCCCCC(=O)OC [Palmitic Acid Methyl Ester],Poor,Poor
O=C([O-])O.[K+] [Potassium Hydrogen Carbonate],Fair,Poor
O=C([O-])[O-].[Na+].[Na+] [Sodium Carbonate],Poor,Poor
O=C([O-])[O-].[K+].[K+] [Potassium Carbonate],Poor,Poor
"CCCCCCCC/C=C\CCCCCCCC(=O)O [Oleic Acid (free form), Oleic Acid]",Poor,Fair
CCCCCCCCCCCC(=O)OC [Lauric Acid Methyl Ester],Good,Good
CCCCCCCCCCCCCC(=O)OC [Myristic Acid Methyl Ester],Poor,Poor
"CCCCCCCCCCCC(=O)O [Lauric Acid (free form), Lauric Acid]",Poor,Poor
O=C([O-])[O-].[Ca+2] [Calcium Carbonate],Fair,Excellent
Triton X-100,Poor,Poor
